According to paper PMC7910296, “Phosphorescent Ir(III) complexes conjugated with oligoarginine peptides serve as optical probes for in vivo microvascular imaging” (Scientific Reports, 2021):

Tests used:
[1] = tested on: vascular endothelium; experiment: In vivo luminescence intensity and lifetime imaging after intravenous administration
[2] = Phosphorescence lifetime in solution (time-correlated single-photon counting); type: physicochemical; settings: 37 °C
Procedure: (§1) Phosphorescence lifetimes were measured with a time-correlated single-photon counting fluorimeter (Quantaurus-Tau C11367G, Hamamatsu Photonics). A laser diode (M12488-35, Hamamatsu Photonics; 481 nm, pulse width 70 ps) was used as the excitation light source. The temperature of the sample solution was controlled by circulating water through a jacket cuvette holder from a temperature controlled bath (RTE7, Neslab). Phosphorescence quantum yields were determined on an absolute photoluminescence quantum yield measurement system (C9920-02, Hamamatsu Photonics) consisting of a Xe arc lamp, a monochromator, an integrating sphere, and a multichannel detector[41].

[3] = Water solubility / aggregate formation in aqueous solution; type: physicochemical
From the text: Ir(III) complexes BTQ-Rn (n = 4, 8, 12, 16) with different lengths of arginine peptides in the ligand (Fig. 1) were obtained by chemical synthesis, including solid-phase synthesis of the peptides. The synthetic details and characterization of BTQ-Rn are described in Supplementary Information. We first examined the spectral and photophysical properties of the synthesized BTQ-Rn (n = 4, 8, 12, 16) in MeCN and Tris–HCl buffer (pH 7.0) and compared them to the parent complex BTQphen. Figure 2A,B show the absorption and emission spectra of BTQphen and BTQ-R12 (a representative BTQ-Rn) in MeCN. […] The first absorption band of BTQ-R12, which has a molar absorption coefficient of 7600 mol^−1 dm^3 cm^−1 at 496 nm, can be assigned to the singlet metal-to-ligand charge transfer (^1MLCT) transition. Emissions appear in the red to near-infrared region, with the maximum at around 660 nm, and show a very large Stokes shift. The emission decay profiles follow single-exponential functions, with lifetimes of 5.7 μs for BTQphen and 5.9 μs for BTQ-R12 in deaerated MeCN, and 0.28 μs for BTQphen and BTQ-R12 in aerated MeCN (Table 1). The extremely long lifetimes in deaerated solution and significant quenching by dissolved oxygen indicate that emission is due to phosphorescence. […]

[4] = Absorption and emission spectra; type: physicochemical; settings: MeCN with 1% DMSO, room temperature
Procedure: Absorption and emission spectra were recorded on a UV–Vis spectrophotometer (Ubest V-550, JASCO) and a photonic multichannel analyzer PMA-12 (C11027-01, Hamamatsu Photonics) equipped with a monochromatized Xe arc lamp, respectively. The emission spectra were fully corrected for spectral sensitivity.

[5] = Phosphorescence quantum yield (absolute photoluminescence quantum yield system); type: physicochemical; settings: room temperature
Procedure: as §1

Row | Compound | localization in liver ([1]; living mice, PC6S 50 nmol iv, fluorescence intensity images of liver) | τp, phosphorescence lifetime ([2]; aerated MeCN) | τp0, phosphorescence lifetime ([2]; deaerated MeCN) | aggregate formation ([3]; aqueous solution / Tris–HCl buffer (pH 7.0), from spectra and single-exponential decay) | water solubility ([3]; aqueous solution, in words) | localization in renal cortex ([1]; mouse kidney, about 1 h after intravenous administration (100 nmol; FITC-lectin 1 mg/mL, 50 μL), luminescence intensity images) | emission maximum [4] | Φp, phosphorescence quantum yield ([5]; aerated MeCN) | Φp0, phosphorescence quantum yield ([5]; deaerated MeCN)
1 | CCN(CC)c1ccc2cc3cc(-c4nc5ccccc5s4)c(=O)oc3cc2c1 [PC6S, reference compound] | taken up into hepatocytes and likely accumulates in LDs and the ER | – | – | – | – | – | – | – | –
2 | (btq)2Ir(phen-pipe) [BTQphen] | – | 0.28 µs | 5.7 µs | forms aggregates | extremely low water solubility | localized in tubular cells rather than in capillaries | around 660 nm | 0.015 | 0.32
